Results from US12310962B2, “Methods and compositions for treating cancer” (Zetagen Therapeutics, Inc., priority 2019, dated 2025).
“Also recorded” adds a separate entry of the source.

How the values were obtained:
[1] = test system: osteosarcoma cells (SaOS2); assay: LDH release cytotoxicity assay; type: cell-based; settings: naloxone added for 3 hours, LDH release at 24 hours post-treatment, corrected for cell number, p<0.001
[2] = test system: breast cancer cells (BT20); assay: LDH release cytotoxicity assay; type: cell-based; settings: naloxone added for 3 hours, LDH release at 24 hours post-treatment, corrected for cell number, p<0.001
[3] = test system: breast cancer cells (BT474); assay: LDH release cytotoxicity assay; type: cell-based; settings: naloxone added for 3 hours, LDH release at 24 hours post-treatment, corrected for cell number, p<0.001
[4] = Cell number after 72 hours of naloxone treatment; type: cell-based; settings: cells printed as "90"; highest dose; after 72 hours
[5] = test system: triple negative breast cancer (TNBC) cells BT474; assay: Cell number after 72 hours of naloxone treatment; type: cell-based; settings: BT474; 72 h exposure; dose dependent
[6] = test system: non-tumor cells, breast epithelium (HUMEC) or vascular endothelium (HUVEC); assay: Cell number of non-tumor control cells versus naloxone dose; type: cell-based; settings: 72 h
BT474 TNBC cells = assay: Tumor spheroid assay; type: cell-based; settings: 1-5 mM, dose dependent
Experimental: (§1) FIGS. 3A-3C depict a spheroid assay showing that naloxone (an OGFR antagonist) treatment decreases tumor size in vitro. […] FIG. 3B depicts a graph showing quantification of the size of the spheroids formed in the spheroid assay described in FIG. 3A as percent change in spheroid area fraction between time 0 and 120 hours after treatment. FIG. 3C depicts a graph showing quantification of the size of the spheroids formed in the spheroid assay described in FIG. 3A as percent change in cell area fraction in each spheroid at 120 hours after treatment.
(§2) Malignant tumors are characterized by invasion of surrounding normal tissues, and the spheroid assay is a simple micro-plate method (based on uniform, self-assembling 3D tumor spheroids) that is routinely used to assess tumor growth. The effects of anti-tumor efficacy were determined by quantifying the size of the spheroids formed in the and calculate percent change in spheroid area fraction between time 0 and 120 hours after treatment as shown in FIG. 3B. The anti-tumor efficacy was also determined by quantifying the percent change in cell area fraction in each spheroid at 120 hours after treatment as determined by staining the cells with crystal violet as shown in FIG. 3C.

SaOS2 osteosarcoma cells = assay: Tumor spheroid assay; type: cell-based; settings: 1-5 mM, dose dependent
Experimental: as §1, §2

SaOS2 cells = assay: Cell number after 72 hours of naloxone treatment; settings: highest dose
BT20 = assay: Cell number after 72 hours of naloxone treatment; settings: highest dose
[7] = between time 0 and 120 hours after treatment

C=CCN1CC[C@]23c4c5ccc(O)c4O[C@H]2C(=O)CC[C@@]3(O)[C@H]1C5 [Naloxone, naloxone]
increase in LDH values relative to normal (non-tumor) cells [1]: 6 fold | increase in LDH values relative to normal (non-tumor) cells [2]: 6 fold | increase in LDH values relative to normal (non-tumor) cells [3]: 3 fold | decrease in cell number [4]: 90% | number of metabolically active cells compared to control non-tumor cells (HUMEC, HUVEC) [5]: significant reduction | dose up to which a non-tumor cell sparing effect is provided [6]: ≤ 2.5 mM | tumor mass cellularity (percent change in cell area fraction, crystal violet) (BT474 TNBC cells; 120 hours after treatment): decreased | size of the tumor masses (percent change in spheroid area fraction) (BT474 TNBC cells; [7]): reduced tumor growth; also recorded: decreased the size of the tumor masses | tumor mass cellularity (percent change in cell area fraction, crystal violet) (SaOS2 osteosarcoma cells; 120 hours after treatment): decreased | size of the tumor masses (percent change in spheroid area fraction) (SaOS2 osteosarcoma cells; [7]): decreased the size of the tumor masses | decrease in cell number (SaOS2 cells): 60% | decrease in cell number (BT20): 90%
